Series [1] has as its system reagin-mediated Passive Cutaneous Anaphylaxis (PCA) response. The series is described as follows: Reagin-mediated rat Passive Cutaneous Anaphylaxis (PCA) screening test. In kind it is in vivo, rat (Sprague-Dawley). Here is the method: The reagin-mediated rat Passive Cutaneous Anaphylaxis (PCA) screening test used to evaluate the present compounds is generally regarded as one of the best animal models for use in predicting the antiallergy activity of test compounds in man. Briefly, the method consists of passive sensitization of skin sites on the test animals with reaginic antibodies followed after 24 hours by administration of the test drug and antigen challenge. The allergic response is measured by use of Evans'blue dye and is evaluated by the spot diameter at the injection site. Details of the test are provided below.
Ovalbumin (5 times crystalline) Dinitrobenzene sulfonic acid, Na^+ salt Bordetella pertussis vaccine - phase I 10-20 × 10 ^9 killed organisms/ml. Aluminum hydroxide gel - 10 mg./ml. Potassium carbonate Male Sprague-Dawley (S/D) Rats - 200 gms. Female Sprague-Dawley Rats - 100 gms. Tris Buffered Saline (TBS) - 0.02 M 2-amino-2-hydroxymethyl-1,3-propanediol (Tris), 0.15 M NaCL, pH 8.2
A substituted ovalbumin antigen is used both as immunogen and challenging antigen. The antigen is prepared as follows: 500 mg. ovalbumin (EA) and 500 mg. K2 CO3 are dissolved in 25 ml. distilled H2 O and stirred at room temperature for 5 minutes. Five hundred (500)mg. dinitrobenzene sulfonic acid, Na^+ salt, (previously recrystallized from hot absolute ethanol) is then added slowly with continued stirring. The reaction mixture is then immediately placed in the dark and allowed to proceed for 2 hours with constant stirring. After 2 hours the mixture is placed in suitable dialysis tubing and dialyzed against 5 changes (4 liters each) of distilled H2 O at 5° C. After dialysis the product is lyophilized and stored at room temperature in a brown or amber container. The antigen obtained will appear as a light yellow, amorphous solid which is very soluble in water or saline. It is designated as DNP denatured ovalbumin (DNP-d EA).
Adult, male Sprague-Dawley rats are used as a source of reagin-rich antisera for the PCA model. Immunization is by a combinatin of DNP-d EA on Al(OH) 3 gel and B. pertussis vaccine. Preparation of the DNP-d EA - gel immunogen is as follows: Dissolve the DNP-d EA in TBS so as to give a concentration of 10 mg./ml. Slowly add 1 ml. of this solution to 10 ml. Al(OH) 3 gel (10 mg. solids/ml.) with constant stirring at room temperature. Stir the mixture an additional 30 minutes to insure a uniform adsorption of antigen on gel.
The resulting preparation is then used in combination with phase I B. pertussis vaccine to immunize male S/D rats as follows: For each rat administer 0.1 ml. DNP-d EA - gel suspension intramuscularly in each hind leg (200 μg DNP-d EA and 2 mg. gel total dose). Follow these injections by the intraperitoneal administration of 1.0 ml. B. pertussis vaccine (10-20 × 10 ^9 organisms). The use of light ether anesthesia during this procedure is recommended to insure proper intramuscular and intraperitoneal injections. 9 days following immunization (but no longer than 10) the animals are exsanguinated by cardiac puncture or abdominal aorta cannulation under ether or pentobarbital anesthesia. The collected whole blood is allowed to clot, the serum separated by centrifugation and the individual serum samples stored frozen until assayed for IgE content.
Individual serum samples should be screened for reaginic antibody concentration before being pooled with other sera, as not all rats respond to immunization procedures with reagin production. At 1:50 saline dilution of serum from each immunized rat is used for this purpose. Intradermal injections of 0.05 ml. of the diluted sera are made in the shaven backs of two small female recipient rats, 100-120 gms. Several serum samples can be tested simultaneously in recipient animals. After a 24 to 48 hour latent period antigen challenge is accomplished by intravenous administration to each rat of 1 mg. DNP-d EA in 0.5 ml. 0.5% Evans' blue dye in saline. […]

For series [2] the following is noted: must be administered by inhalation; cited from earlier work.
Series [3] has as its system release of mediators, e.g. histamine and SRS-A. To be noted: administered to asthmatic patients prior to inhalation of specific antigens; cited from earlier work.
For series [4] the following is noted: cited from earlier work.
Series [5] can be described thus: water solubility of salts. In kind it is physicochemical. Particulars: salts of 2-(2-n-propoxyphenyl)-5-(5-1H-tetrazolyl)-pyrimidin-4(3H)-one.
The mark [6] stands for this setting: po, 10 min before antigen challenge, read-out: ID50, the dose of compound that inhibits 50% of the response, p.o.
Setting [7] is: iv, test compounds 1-5 min before antigen challenge, DSCG at time of challenge, read-out: ID50, the dose of compound that inhibits 50% of the response, iv.
[8] abbreviates: bronchodilators, bronchial asthma.

Read-outs that look alike come from different tables or passages of the source. Bounds are passed on as bounds.

`CCC(C)Oc1ccccc1-c1ncc(-c2nnn[nH]2)c(=O)[nH]1` (racemic) [Example 5, (±)-2-(2-sec-Butoxyphenyl)-5-(5-1H-tetrazolyl)pyrimidin-4(3H)-one]: in series [1] (setting [6]), the ED50 came out at 0.05 mg/kg.

Consider `O=C(O)c1cc(=O)c2c(OCC(O)COc3cccc4oc(C(=O)O)cc(=O)c34)cccc2o1` [DSCG, disodium cromoglycate], for which the ED50 is 0.3 mg/kg in series [1] (setting [7]) and above 30 mg/kg in series [1] (setting [6]). In addition, the oral absorption result in series [2] is listed as “not orally absorbed”. The “inhibition of release of mediators” value in series [3] is listed as “inhibits the release of mediators”. Besides, the cardiovascular side effects result in series [4] (in vivo) was “without cardiovascular side effects”.

With `CCOc1ccccc1-c1ncc(-c2nnn[nH]2)c(=O)[nH]1` [Example 1, 2-(2-Ethoxyphenyl)-5-(5-1H-tetrazolyl)pyrimidin-4-(3H)-one], the ED50 was determined as 0.02 mg/kg in series [1] (setting [7]) and 0.09 mg/kg in series [1] (setting [6]).

Turning to `CCCOc1ccccc1-c1ncc(-c2nnn[nH]2)c(=O)[nH]1` [Example 2, 2-(2-n-Propoxyphenyl)-5-(5-1H-tetrazolyl)pyrimidin-4(3H)-one], the ED50 in series [1] (setting [6]) amounted to 0.04 mg/kg.

With `CC(C)Oc1ccccc1-c1ncc(-c2nnn[nH]2)c(=O)[nH]1` [Example 3, 2-(2-Isopropoxyphenyl)-5-(5-1H-tetrazolyl)pyrimidin-4(3H)-one], the ED50 in series [1] (setting [6]) is around 0.04 mg/kg.

As for `CCCCOc1ccccc1-c1ncc(-c2nnn[nH]2)c(=O)[nH]1` [Example 4, 2-(2-n-Butoxyphenyl)-5-(5-1H-tetrazolyl)pyrimidin-4(3H)-one], in series [1] (setting [6]), the ED50 is around 0.07 mg/kg.

Turning to `COc1ccccc1-c1ncc(-c2nnn[nH]2)c(=O)[nH]1` [Example 6, 2-(2-Methoxyphenyl)-5-(5-1H-tetrazolyl)pyrimidin-4(3H)-one], the ED50 in series [1] (setting [6]) was around 0.1 mg/kg.

Turning to `CC(C)COc1ccccc1-c1ncc(-c2nnn[nH]2)c(=O)[nH]1` [Example 7, 2-(2-Isobutoxyphenyl)-5-(5-1H-tetrazolyl)pyrimidin-4(3H)-one], in series [1] (setting [6]), the ED50 was around 0.1 mg/kg.

For the compound `C=CCOc1ccccc1-c1ncc(-c2nnn[nH]2)c(=O)[nH]1` [Example 8, 2-(2-Allyloxyphenyl)-5-(5-1H-tetrazolyl)pyrimidin-4(3H)-one], in series [1] (setting [6]), the ED50 was determined as 0.24 mg/kg.

In the case of `O=c1[nH]c(-c2ccccc2OCC2CC2)ncc1-c1nnn[nH]1` [Example 9, 2-(2-Cyclopropylmethoxyphenyl)-5-(5-1H-tetrazolyl)pyrimidin-4(3H)-one], the ED50 in series [1] (setting [6]) came to 0.07 mg/kg.

As for `CCCOc1ccc(OC)cc1-c1ncc(-c2nnn[nH]2)c(=O)[nH]1` [Example 10, 2-(5-Methoxy-2-n-propoxyphenyl)-5-(5-1H-tetrazolyl)pyrimidin-4(3H)-one], in series [1] (setting [6]), the ED50 stood at 0.03 mg/kg.

For `CCCOc1ccc([N+](=O)[O-])cc1-c1ncc(-c2nnn[nH]2)c(=O)[nH]1` [Example 14, 2-(5-Nitro-2-n-propoxyphenyl)-5-(5-1H tetrazolyl)pyrimidin-4(3H)-one], in series [1] (setting [6]), the ED50 is 5 mg/kg.

Regarding `CCCOc1ccc(N)cc1-c1ncc(-c2nnn[nH]2)c(=O)[nH]1` [Example 15, 2-(5-Amino-2-n-propoxyphenyl)-5-(5-1H-tetrazolyl)pyrimidin-4(3H)-one], in series [1] (setting [6]), the ED50 was around 0.1 mg/kg.

On to `CCCOc1ccc(N(C)C)cc1-c1ncc(-c2nnn[nH]2)c(=O)[nH]1` [Example 16, 2-(5-Dimethylamino-2-n-propoxyphenyl)-5-(5-1H-tetrazolyl)pyrimidin-4(3H)-on], for which the ED50 in series [1] (setting [6]) was around 0.4 mg/kg.

Take `CN1[C@@H]2CC[C@H]1C[C@@H](OC(=O)C(CO)c1ccccc1)C2` (stereo partly drawn) [atropine]: the undesirable side effects entry in series [4] (setting [8]) is “cardiac stimulation and gastrointestinal distress”.

As for `CCCOc1ccccc1-c1ncc(-c2nnn[nH]2)c(=O)[nH]1` [diethanolamine, 2-(2-n-propoxyphenyl)-5-(5-1H-tetrazolyl)-pyrimidin-4(3H)-one], in series [5], the water solubility result is on record as “water soluble”.

With `CNC[C@H](O)c1ccc(O)c(O)c1` [epinephrine], the undesirable side effects result in series [4] (setting [8]) is “cardiac stimulation and gastrointestinal distress”.

Turning to `CC(C)NCC(O)c1ccc(O)c(O)c1` (stereo not drawn) [isoproterenol], the undesirable side effects entry in series [4] (setting [8]) was “cardiac stimulation and gastrointestinal distress”.

For `Cn1c(=O)c2[nH]cnc2n(C)c1=O` [theophylline], in series [4] (in vivo), the undesirable side effects entry was “cardiac stimulation and gastrointestinal distress”.

The values are drawn from US4082751A, “Therapeutic agents” (priority 1976, dated 1978).
